In PubChem BioAssay AID1259411 (Chemical Carcinogenesis Research Information System (CCRIS), 2018):
The source made the active and inactive calls. No rule for the calls is given here.

System: rodent carcinogenicity bioassays, tumor incidence
Assay: CCRIS carcinogenicity studies
Conditions: Species: RAT
Outline: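 Archive of carcinogenicity, mutagenicity, tumor promotion and tumor inhibition results drawn from journals, NCI reports and other sources, expert-reviewed; covers 1985-2011 and is no longer updated.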

Measured: carcinogen call

CCN(N=O)C(N)=O
active: Strain/Sex: F344/MALE, Route: GAVAGE, Dose: 0, 2.4 MG IN 0.2 ML ETHYL ACETATE/CORN OIL (1:1) 2/WK FOR 28 WK (TOTAL DOSE: 135 MG) (STUDY DURATION: 80 WK), Tumor Site: Type of Lesion: FORESTOMACH: CARCINOMA, LUNG: CARCINOMA OR ADENOMA active; positive | Strain/Sex: F344/MALE, Route: GAVAGE, Dose: 0, 6 MG/ML (TOTAL DOSE 0; 0.4 MMOL) IN 2 ML ETHYL ACETATE AND CORN OIL (1:2) 2/WK FOR 20 WK (STUDY DURATION: LIFETIME), Dose: 0, 6 MG/ML (TOTAL DOSE 0; 0.4 MMOL) IN 2 ML ETHYL ACETATE AND CORN OIL (1:2) 2/WK FOR 20 WK (STUDY DURATION: LIFETIME), Tumor Site: Type of Lesion: FORESTOMACH: SQUAMOUS CELL CARCINOMA, THYROID: C-CELL TUMOR, FOLLICULAR CELL TUMOR, LUNG: TUMOR, NERVOUS SYSTEM: TUMOR;, Tumor Site: Type of Lesion: FORESTOMACH: SQUAMOUS CELL CARCINOMA, THYROID: C-CELL TUMOR, FOLLICULAR CELL TUMOR, LUNG: TUMOR, NERVOUS SYSTEM: TUMOR active; positive | Strain/Sex: F344/MALE, Route: GAVAGE, Dose: 0, 6 MG/ML IN 0.2 ML ETHYL ACETATE AND CORN OIL 2/WK FOR 20 WK (STUDY DURATION: LIFESPAN), Tumor Site: Type of Lesion: FORESTOMACH: TUMOR, THYROID: C-CELL TUMOR, FOLLICULAR CELL TUMOR, LUNG: TUMOR, NERVOUS SYSTEM: TUMOR, COLON: TUMOR, PERI, Tumor Site: Type of Lesion: FORESTOMACH: TUMOR, THYROID: C-CELL TUMOR, FOLLICULAR CELL TUMOR, LUNG: TUMOR, NERVOUS SYSTEM: TUMOR, COLON: TUMOR, PERI active; positive | Strain/Sex: F344/MALE, Route: GAVAGE, Dose: 0, 12 MG/ML (TOTAL DOSE 0; 1.1 MMOL) IN 2 ML ETHYL ACETATE AND CORN OIL (1:2) 2/WK FOR 28 WK (STUDY DURATION: LIFETIME), Dose: 0, 12 MG/ML (TOTAL DOSE 0; 1.1 MMOL) IN 2 ML ETHYL ACETATE AND CORN OIL (1:2) 2/WK FOR 28 WK (STUDY DURATION: LIFETIME), Tumor Site: Type of Lesion: FORESTOMACH: SQUAMOUS CELL CARCINOMA, LUNG: TUMOR, ILEUM/JEJUNUM: TUMOR, BODY CAVITY: MESOTHELIOMA, ZYMBAL GLAND: TUMOR;, Tumor Site: Type of Lesion: FORESTOMACH: SQUAMOUS CELL CARCINOMA, LUNG: TUMOR, ILEUM/JEJUNUM: TUMOR, BODY CAVITY: MESOTHELIOMA, ZYMBAL GLAND: TUMOR active; positive | Strain/Sex: F344/MALE, Route: GAVAGE, Dose: 0, 12 MG/ML IN 0.2 ML ETHYL ACETATE AND CORN OIL 2/WK FOR 28 WK (STUDY DURATION: LIFESPAN), Tumor Site: Type of Lesion: FORESTOMACH: TUMOR, LUNG: TUMOR, ILEUM/JEJUNUM: TUMOR, PERITONEUM: MESOTHELIOMA, Tumor Site: Type of Lesion: FORESTOMACH: TUMOR, LUNG: TUMOR, ILEUM/JEJUNUM: TUMOR, PERITONEUM: MESOTHELIOMA active; positive | Strain/Sex: F344/MALE, Route: ORAL, Dose: 0, 0.3, 1, 3, 10 PPM IN DRINKING WATER FOR 104 WK (STUDY DURATION: 111 WK), Dose: 0, 0.3, 1, 3, 10 PPM IN DRINKING WATER FOR 104 WK (STUDY DURATION: 111 WK), Tumor Site: Type of Lesion: BRAIN: GLIOMA, MAMMARY GLAND: FIBROMA, LUNG: ADENOMA, LUNG: ADENOCARCINOMA, PERITONEUM: MESOTHELIOMA, Tumor Site: Type of Lesion: BRAIN: GLIOMA, MAMMARY GLAND: FIBROMA, LUNG: ADENOMA, LUNG: ADENOCARCINOMA, PERITONEUM: MESOTHELIOMA active; positive | Strain/Sex: SPRAGUE-DAWLEY/FEMALE, Route: IN UTERO, Dose: 0, 2.5, 10 MG/KG BW ONCE ADMINISTERED INTRAVENOUSLY ON DAY 15 OF GESTATION (STUDY DURATION: 104 WK), Dose: 0, 2.5, 10 MG/KG BW ONCE ADMINISTERED INTRAVENOUSLY ON DAY 15 OF GESTATION (STUDY DURATION: 104 WK), Tumor Site: Type of Lesion: BRAIN: GLIOMA active; positive | Strain/Sex: SPRAGUE-DAWLEY/MALE, Route: IN UTERO, Dose: 0, 2.5, 10 MG/KG BW ONCE ADMINISTERED INTRAVENOUSLY ON DAY 15 OF GESTATION (STUDY DURATION: 104 WK), Dose: 0, 2.5, 10 MG/KG BW ONCE ADMINISTERED INTRAVENOUSLY ON DAY 15 OF GESTATION (STUDY DURATION: 104 WK), Tumor Site: Type of Lesion: BRAIN: GLIOMA active; positive | Strain/Sex: SPRAGUE-DAWLEY, Route: INTRAVENOUSLY TO MATERNAL RATS AT 15 D OF GESTATION, PROGENY OBSERVED, Dose: 0, 2.5, 6.25, 10.0 MG/KG BW (STUDY DURATION: 24 MO), Dose: 0, 2.5, 6.25, 10.0 MG/KG BW (STUDY DURATION: 24 MO), Tumor Site: Type of Lesion: BRAIN: OLIGODENDRO-GLIOMA AND MIXED GLIOMA active; positive | Strain/Sex: SPRAGUE-DAWLEY, Route: INTRAVENOUSLY TO MOTHERS AT 15 D OF GESTATION, PROGENY OBSERVED, Dose: 0, 2.5, 6.25, 10.0 MG/KG BW (STUDY DURATION: 2 YRS), Dose: 0, 2.5, 6.25, 10.0 MG/KG BW (STUDY DURATION: 2 YRS), Tumor Site: Type of Lesion: CRANIAL NERVE: TUMORS active; positive | Strain/Sex: SPRAGUE-DAWLEY, Route: INTRAVENOUSLY TO MOTHERS AT 15 D OF GESTATION, PROGENY OBSERVED, Dose: 0, 2.5, 6.25, 10.0 MG/KG BW (STUDY DURATION: 2 YRS), Dose: 0, 2.5, 6.25, 10.0 MG/KG BW (STUDY DURATION: 2 YRS), Tumor Site: Type of Lesion: SPINAL NERVE: TUMORS active; positive | Strain/Sex: SPRAGUE-DAWLEY, Route: INTRAVENOUSLY TO MOTHERS AT 15 D OF GESTATION, PROGENY OBSERVED, Dose: 0, 2.5, 6.25, 10.0 MG/KG BW (STUDY DURATION: 24 MO), Dose: 0, 2.5, 6.25, 10.0 MG/KG BW (STUDY DURATION: 24 MO), Tumor Site: Type of Lesion: SPINAL CORD: TUMORS active; positive | Strain/Sex: WISTAR/MALE, FEMALE, Route: SUBCUTANEOUS, Dose: 0, 60 MG/KG BW ADMINISTERED TO 3 DAY OLD RATS (STUDY DURATION: 12 MO), Tumor Site: Type of Lesion: CENTRAL NERVOUS SYSTEM: GLIOMA active; positive | Strain/Sex: WISTAR/MALE, FEMALE, Route: TRANSPLACENTAL, Dose: 0, 60 MG/KG BW INTRAVENOUS DOSE ADMINISTERED TO LATE GESTATIONAL RATS AND OFFSPRING OBSERVED FOR 12 MO (STUDY DURATION:, Tumor Site: Type of Lesion: CENTRAL NERVOUS SYSTEM: GLIOMA active; positive | Strain/Sex: WISTAR/MALE, Route: INTRAPERITONEAL, Dose: 300 MG/KG BW 1/WK FOR 45 WK (STUDY DURATION: 45 WK), Tumor Site: Type of Lesion: INTEGUMENTARY SYSTEM (SUBCUTANEOUS TISSUE): SPINDLE CELL SARCOMA active; positive
